Experimental findings from patent publication US12630498B2 (Genzyme Corporation, priority 2019, dated 2026) are described below.

The target of experiment [1] is T1, CFTR-mediated transepithelial chloride transport in primary human bronchial epithelial cells from a ΔF508 homozygous CF donor (Homo sapiens, UniProt P13569, DEL508-508).
T1 construct: Primary human bronchial epithelial cells from a ΔF508 homozygous CF donor; host or cells: primary CF-HBE cells, ΔF508 homozygous donor
The experiment can be described thus: TECC24 recording of CFTR-mediated transepithelial chloride transport in CF-HBE cells (AUC fold over DMSO). The experiment is classed as cell-based. The following applies: test agent 10 μM, 48 hours incubation, AUC of forskolin-stimulated IEQ relative to DMSO. The gist of the method:
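Equivalent Cl⁻ current was derived from transepithelial voltage and resistance, and its AUC from forskolin (10 μM) to CFTRinh-172 (20 μM) was divided by the DMSO AUC. Benzamil 10 μM blocked ENaC. Cells were ΔF508-homozygous primary bronchial epithelia pretreated 48 h at 36.5 °C in IL-13 medium.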

For experiment [2], the target named is T2, human Cystic Fibrosis Transmembrane Conductance Regulator (CFTR) harboring the ΔF508 mutation (Homo sapiens, UniProt P13569, DEL508-508).
T2 construct: expressed in transfected cells; host or cells: H441 carcinoma line (G418-selected)
The experiment can be described thus: H441 cell ΔF508-CFTR-HRP cell surface assay (Emax and EC50). The experiment is classed as cell-based. The following applies: for Emax: NCI-H441, NA = Not active. In short, it runs like this:
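H441 and 41o- bronchial epithelial cells expressing ΔF508-CFTR with an extracellular-loop-4 HRP tag were treated with a 15-point compound series (24.5–0.001 μM) for two nights, H441 at 27° C, 41o- at 37° C with 0.0005 mg/ml doxycycline. Surface HRP luminescence read; % of maximum VX809 signal and EC50 derived.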

T1 sequence (P13569 with tags, fused parts or gaps DEL508-508): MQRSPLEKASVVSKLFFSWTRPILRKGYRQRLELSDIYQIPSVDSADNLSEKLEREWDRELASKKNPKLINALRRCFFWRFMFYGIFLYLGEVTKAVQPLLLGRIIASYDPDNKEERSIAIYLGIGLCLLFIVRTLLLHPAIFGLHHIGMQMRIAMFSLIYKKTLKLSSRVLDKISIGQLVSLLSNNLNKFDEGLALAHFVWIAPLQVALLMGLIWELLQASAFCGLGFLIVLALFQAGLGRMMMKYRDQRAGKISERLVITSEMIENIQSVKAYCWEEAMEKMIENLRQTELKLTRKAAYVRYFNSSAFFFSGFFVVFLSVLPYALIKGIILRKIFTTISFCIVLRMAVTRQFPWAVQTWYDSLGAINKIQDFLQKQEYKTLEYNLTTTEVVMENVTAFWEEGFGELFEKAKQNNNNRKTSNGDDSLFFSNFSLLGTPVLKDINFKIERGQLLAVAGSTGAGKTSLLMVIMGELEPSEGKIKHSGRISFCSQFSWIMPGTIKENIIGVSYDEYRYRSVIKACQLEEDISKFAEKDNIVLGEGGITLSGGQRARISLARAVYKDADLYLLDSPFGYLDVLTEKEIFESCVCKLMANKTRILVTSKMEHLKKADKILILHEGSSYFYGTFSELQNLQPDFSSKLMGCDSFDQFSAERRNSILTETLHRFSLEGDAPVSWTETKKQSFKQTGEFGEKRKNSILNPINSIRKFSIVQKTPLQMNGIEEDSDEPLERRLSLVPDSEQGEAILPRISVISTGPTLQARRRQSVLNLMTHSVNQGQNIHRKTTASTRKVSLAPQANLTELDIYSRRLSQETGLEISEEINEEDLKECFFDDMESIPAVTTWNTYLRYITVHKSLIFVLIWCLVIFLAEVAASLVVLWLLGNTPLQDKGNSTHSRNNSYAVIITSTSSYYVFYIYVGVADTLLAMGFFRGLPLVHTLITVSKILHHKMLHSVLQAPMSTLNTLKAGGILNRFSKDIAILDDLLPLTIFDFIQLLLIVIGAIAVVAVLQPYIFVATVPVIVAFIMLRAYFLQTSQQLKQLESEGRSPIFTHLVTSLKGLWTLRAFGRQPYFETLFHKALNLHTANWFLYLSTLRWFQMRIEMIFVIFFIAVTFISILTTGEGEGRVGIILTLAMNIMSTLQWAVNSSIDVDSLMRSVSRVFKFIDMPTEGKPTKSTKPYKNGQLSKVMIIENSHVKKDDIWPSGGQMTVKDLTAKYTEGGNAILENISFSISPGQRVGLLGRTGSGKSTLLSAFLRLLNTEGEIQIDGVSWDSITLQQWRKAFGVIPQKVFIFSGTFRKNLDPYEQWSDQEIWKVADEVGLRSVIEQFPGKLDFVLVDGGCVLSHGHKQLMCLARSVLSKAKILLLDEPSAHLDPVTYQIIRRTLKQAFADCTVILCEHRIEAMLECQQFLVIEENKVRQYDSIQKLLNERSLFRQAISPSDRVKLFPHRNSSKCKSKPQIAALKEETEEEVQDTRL
T2 sequence (P13569 with tags, fused parts or gaps DEL508-508): as above

The EC50 is the concentration needed to bring the measured effect to its halfway point. What is called Emax is the size of the effect at its maximum, as opposed to the concentration needed. Take `CC1([C@H](NC(=O)c2ccc3c(F)cccc3c2OCc2ccc(C(F)(F)F)cc2)C(=O)O)CCCC1` [Example 303, (S)-2-(5-fluoro-1-((4-(trifluoromethyl)benzyl)oxy)-2-naphthamido)-2-(1-methylcyclopentyl)acetic Acid]: the “TECC24 AUC fold over DMSO @10 μM” value in experiment [1] is given as “B (“B” refers to AUC @10 uM between 4-6)”. For the same compound, in experiment [2], it took 700 nM to reach a half-maximal effect (EC50) and the Emax was determined as 174%.

Regarding `CCCC(C)(C)[C@H](NC(=O)c1ccc2ccc(C(F)(F)F)cc2c1OCc1ccc(C(F)(F)F)cc1)C(=O)O` [Example 304, (S)-3,3-dimethyl-2-(7-(trifluoromethyl)-1-((4-(trifluoromethyl)benzyl)oxy)-2-naphthamido)hexanoic Acid], the “TECC24 AUC fold over DMSO @10 μM” value in experiment [1] is on record as “A (“A” refers to AUC @10 uM >6)”. Moreover, in experiment [2], the concentration for a half-maximal effect (EC50) turned out to be 100 nM and the maximum response (Emax) stood at 249%.

On to `CCCC(C)(C)[C@H](NC(=O)c1ccc2ccc(Cl)cc2c1OCc1ccc(C(F)(F)F)cc1)C(=O)O` [Example 306, (S)-2-(7-chloro-1-((4-(trifluoromethyl)benzyl)oxy)-2-naphthamido)-3,3-dimethylhexanoic Acid], for which, in experiment [1], the “TECC24 AUC fold over DMSO @10 μM” value is listed as “A (“A” refers to AUC @10 uM >6)”. In experiment [2], this compound registered a 50% effective concentration (EC50) of 100 nM and a maximal effect (Emax) of 417%.

Consider `CC(C)(C)[C@@H](NC(=O)c1ccc2ccc(C(F)(F)F)cc2c1OCc1ccc(C(F)(F)F)cc1)C(=O)O` [Example 307, (R)-3,3-dimethyl-2-(7-(trifluoromethyl)-1-((4-(trifluoromethyl)benzyl)oxy)-2-naphthamido)butanoic Acid], for which the “TECC24 AUC fold over DMSO @10 μM” value in experiment [1] was “C (“C” refers to AUC @10 uM <4)”. In experiment [2], this compound came in with a concentration for a half-maximal effect (EC50) of 600 nM and an Emax of 81.1%.

Take `COc1ccc2ccc(C(=O)N[C@H](C(=O)O)C(C)(C)C)c(OCc3ccc(C(F)(F)F)cc3)c2c1` [Example 308, (S)-2-(7-methoxy-1-((4-(trifluoromethyl)benzyl)oxy)-2-naphthamido)-3,3-dimethylbutanoic Acid]: the “TECC24 AUC fold over DMSO @10 μM” value in experiment [1] was “A (“A” refers to AUC @10 uM >6)”. Moreover, in experiment [2], a half-maximal response (EC50) required 500 nM and the Emax is 408%.

Consider `CCC(C)(C)[C@H](NC(=O)c1ccc2ccc(OC)cc2c1OCc1ccc(C(F)(F)F)cc1)C(=O)O` [Example 309, (S)-2-(7-methoxy-1-((4-(trifluoromethyl)benzyl)oxy)-2-naphthamido)-3,3-dimethylpentanoic Acid], for which the “TECC24 AUC fold over DMSO @10 μM” value in experiment [1] was “A (“A” refers to AUC @10 uM >6)”. In experiment [2], this compound yielded a 50% effective concentration (EC50) of 300 nM and an Emax of 349%.

For `COc1ccc2ccc(C(=O)N[C@H](C(=O)O)C(C)(C)C)c(OCc3ccc(OC(F)(F)F)cc3)c2c1` [Example 310, (S)-2-(7-methoxy-1-((4-(trifluoromethoxy)benzyl)oxy)-2-naphthamido)-3,3-dimethylbutanoic Acid], in experiment [1], the “TECC24 AUC fold over DMSO @10 μM” value is given as “A (“A” refers to AUC @10 uM >6)”. In experiment [2], this compound gave an EC50 of 600 nM and an Emax of 299%.

Consider `CCC(C)(C)[C@H](NC(=O)c1ccc2ccc(OC)cc2c1OCc1ccc(OC(F)(F)F)cc1)C(=O)O` [Example 311, (S)-2-(7-methoxy-1-((4-(trifluoromethoxy)benzyl)oxy)-2-naphthamido)-3,3-dimethylpentanoic Acid], for which, in experiment [1], the “TECC24 AUC fold over DMSO @10 μM” value is on record as “A (“A” refers to AUC @10 uM >6)”. In addition, in experiment [2], the EC50 was determined as 500 nM and the Emax was 345%.

As for `CCC(C)(C)[C@@H](NC(=O)c1ccc2ccc(C)cc2c1OCc1ccc(OC(F)(F)F)cc1)C(=O)O` [Example 312, (R)-3,3-dimethyl-2-(7-methyl-1-((4-(trifluoromethoxy)benzyl)oxy)-2-naphthamido)pentanoic Acid], the “TECC24 AUC fold over DMSO @10 μM” value in experiment [1] was “B (“B” refers to AUC @10 uM between 4-6)”. In experiment [2], this compound returned an EC50 of 2200 nM and an Emax of 127%.

In the case of `CCC1([C@H](NC(=O)c2ccc3ccc(F)cc3c2OCc2ccc(OC(F)(F)F)cc2)C(=O)O)CCCC1` [Example 313, (S)-2-(1-ethylcyclopentyl)-2-(7-fluoro-1-((4-(trifluoromethoxy)benzyl)oxy)-2-naphthamido)acetic Acid], the “TECC24 AUC fold over DMSO @10 μM” value in experiment [1] is listed as “A (“A” refers to AUC @10 uM >6)”. Further, in experiment [2], the concentration for a half-maximal effect (EC50) is 300 nM and the Emax is 152%.

Regarding `CCC1([C@H](NC(=O)c2ccc3ccc(F)cc3c2OCc2ccc(C(F)(F)F)cc2)C(=O)O)CCCC1` [Example 314, (S)-2-(1-ethylcyclopentyl)-2-(7-fluoro-1-((4-(trifluoromethyl)benzyl)oxy)-2-naphthamido)acetic Acid], the “TECC24 AUC fold over DMSO @10 μM” value in experiment [1] is reported as “A (“A” refers to AUC @10 uM >6)”. Besides, in experiment [2], the half-maximal effective concentration (EC50) was found to be 400 nM and the maximal response (Emax) worked out at 233%.
